Reference: patent publication US20110152092A1, “Herbicidal compositions comprising flufenacet” (Bayer CropScience AG, priority 2009, published 2011)

Columns and labels:
APESV = experiment: Greenhouse trial, PO application, post-emergence action against weeds (test method 2); format: in vivo, Apera Spica-venti; conditions: g of AS/ha: (A) 120, (B) 1200, (C) 120, mixture 120 + 1200 + 120
Protocol: (§1) In the standard design of the test, seeds of various broad-leaved weed and weed grass biotypes (origins) were sown in a 8-13 cm diameter pot filled with natural soil of a standard field soil (loamy silt; non-sterile) and covered with a covering soil layer of about 1 cm. The pots were then cultivated in a greenhouse (12-16 h of light, temperature day 20-22° C., night 15-18° C.) until the time of application. The pots were treated on a laboratory track sprayer with spray liquors comprising the compositions according to the invention, mixtures of the prior art or components used individually. Application of the active compounds or active compound combinations formulated as WG, WP, EC or otherwise was carried out at the appropriate growth stages of the plants. The application rate for the spray application was 100-600 l of water/ha. After the treatment, the plants were returned to the greenhouses.
(§2) About 3 weeks after the application, the soil action or/and foliar action was assessed visually according to a scale of 0-100% in comparison to an untreated comparative group: 0%=no noticeable effect compared to the untreated comparative group; 100%=full effect compared to the untreated comparative group. […]

STEME = experiment: as above; format: in vivo, Stellaria media; conditions: g of AS/ha: (A) 120, (B) 1200, (C) 120, mixture 120 + 1200 + 120
Protocol: as §1, §2

LOLPE [1] = experiment: as above; format: in vivo, Lolium perenne; conditions: g of AS/ha: (A) 120, (B) 1200, (C) 120, mixture 120 + 1200 + 120
Protocol: as §1, §2

HORVS [2] = experiment: Greenhouse trial, PO application, selective post-emergence action on crop (test method 4); format: in vivo, Hordeum vulgare, summer barley; conditions: g of AS/ha: (A) 120, (B) 1200, (C) 120, mixture 120 + 1200 + 120
Protocol: as §1, §2

LOLPE [3] = experiment: Greenhouse trial, PE application, pre-emergence action against weeds (test method 1); format: in vivo, Lolium perenne; conditions: g of AS/ha: (A) 90, (B) 1200, (C) 90, mixture 90 + 1200
Protocol: as §1, §2

AVEFA [4] = experiment: as above; format: in vivo, Avena fatua; conditions: g of AS/ha: (A) 90, (B) 1200, (C) 90, mixture 90 + 1200
Protocol: as §1, §2

HORVS [5] = experiment: Greenhouse trial, PE application, selective pre-emergence action on crop (test method 3); format: in vivo, Hordeum vulgare, summer barley; conditions: g of AS/ha: (A) 90, (B) 1200, (C) 90, mixture 90 + 1200
Protocol: as §1, §2

LOLPE [6] = experiment: Greenhouse trial, pre-sowing application 7 days prior to sowing (test method 5); format: in vivo, Lolium perenne; conditions: g of AS/ha: (A) 90, (B) 1200, (C) 90, mixture 90 + 1200
Protocol: as §1, §2

AVEFA [7] = experiment: as above; format: in vivo, Avena fatua; conditions: g of AS/ha: (A) 90, (B) 1200, (C) 90, mixture 90 + 1200
Protocol: as §1, §2

HORVS [8] = experiment: as above; format: in vivo, Hordeum vulgare, summer barley; conditions: g of AS/ha: (A) 90, (B) 1200, (C) 90, mixture 90 + 1200
Protocol: as §1, §2

AVEFA [9] = experiment: Greenhouse trial, PE application with different irrigation variations (test method 6); format: in vivo, Avena fatua; conditions: g of AS/ha: (A) 120, (B) 1200, (C) 90, mixture 120 + 1200 + 90
Protocol: as §1, §2

MATCH = experiment: as above; format: in vivo, Matricaria chamomilla; conditions: g of AS/ha: (A) 120, (B) 1200, (C) 90, mixture 120 + 1200 + 90
Protocol: as §1
(§3) About 3 weeks after the application, the soil action or/and foliar action was assessed visually according to a scale of 0-100% in comparison to an untreated comparative group: 0%=no noticeable effect compared to the untreated comparative group; 100%=full effect compared to the untreated comparative group.
(notes: the term “seeds” also includes vegetative propagation forms such as, for example, rhizome pieces; abbreviations used: h light=hours of illumination, g of AS/ha=gram of active substance per hectare, l/ha=liter per hectare, S=sensitive, R=resistant) • 1. Pre-emergence action against weeds: seeds of various broad-leaved weed and weed grass biotypes (origins) were sown in a 8-13 cm diameter pot filled with natural soil of a standard field soil (loamy silt; non-sterile) and covered with a covering soil layer of about 1 cm. The pots were then cultivated in a greenhouse (12-16 h of light, temperature day 20-22° C., night 15-18° C.) until the time of application. […]

TRZAS = experiment: as above; format: in vivo, Triticum aestivum, summer wheat; conditions: g of AS/ha: (A) 120, (B) 1200, (C) 90, mixture 120 + 1200 + 90
Protocol: as §1, §3
(notes: the term “seeds” also includes vegetative propagation forms such as, for example, rhizome pieces; abbreviations used: h light=hours of illumination, g of AS/ha=gram of active substance per hectare, l/ha=liter per hectare, S=sensitive, R=resistant) • 1. Pre-emergence action against weeds: seeds of various broad-leaved weed and weed grass biotypes (origins) were sown in a 8-13 cm diameter pot filled with natural soil of a standard field soil (loamy silt; non-sterile) and covered with a covering soil layer of about 1 cm. The pots were then cultivated in a greenhouse (12-16 h of light, temperature day 20-22° C., night 15-18° C.) until the time of application. The pots were treated at the BBCH stage 00-10 of the seeds/plants on a laboratory track sprayer with spray liquors comprising the compositions according to the invention, mixtures or components used individually, as WG, WP, EC or other formulations. The application rate for the spray application was 100-600 l of water/ha. After the treatment, the plants were returned to the greenhouses and, when required, treated with fertilizer and watered. • 2. Post-emergence action against weeds: seeds of various broad-leaved weed and weed grass biotypes (origins) were sown in a 8-13 cm diameter pot filled with natural soil of a standard field soil (loamy silt; non-sterile) and covered with a covering soil layer of about 1 cm. The pots were then cultivated in a greenhouse (12-16 h of light, temperature day 20-22° C., night 15-18° C.) until the time of application. […]

CCC(CC)Nc1c([N+](=O)[O-])cc(C)c(C)c1[N+](=O)[O-] [(B) pendimethalin, N-(1-ethylpropyl)-3,4-dimethyl-2,6-dinitrobenzenamine]
activity APESV (visual, scale 0-100%) (APESV): 0% | activity STEME (visual, scale 0-100%) (STEME): 30% | activity LOLPE (visual, scale 0-100%) (LOLPE [1]): 0% | activity on crop plant HORVS (visual, scale 0-100%) (HORVS [2]): 10% | activity LOLPE (visual, scale 0-100%) (LOLPE [3]): 10% | activity AVEFA (visual, scale 0-100%) (AVEFA [4]): 40% | activity on crop plant HORVS (visual, scale 0-100%) (HORVS [5]): 50% | activity LOLPE (visual, scale 0-100%) (LOLPE [6]): 80% | activity AVEFA (visual, scale 0-100%) (AVEFA [7]): 70% | activity on crop plant HORVS (visual, scale 0-100%) (HORVS [8]): 30% | activity AVEFA (visual, scale 0-100%) (AVEFA [9]; irrigation from above): 80% | activity AVEFA (visual, scale 0-100%) (AVEFA [9]; irrigation from below): 40% | activity MATCH (visual, scale 0-100%) (MATCH; irrigation from above): 30% | activity MATCH (visual, scale 0-100%) (MATCH; irrigation from below): 18% | activity on crop plant TRZAS (visual, scale 0-100%) (TRZAS; irrigation from above): 50% | activity on crop plant TRZAS (visual, scale 0-100%) (TRZAS; irrigation from below): 0%
